Laboratory results published in PubChem BioAssay (NCI).
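Compound exposure: 48 hours, 5 concentrations, 96-well plates. GI50 marks 50% less growth. TGI: total growth inhibition.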

Legend:
Assay in all cases: inhibition of tumour cell growth, NCI panel, 48 h
MOLT-4 leukemia = system: MOLT-4 leukemia
NCI-H23 lung = system: NCI-H23 lung
SK-MEL-28 melanoma = system: SK-MEL-28 melanoma
A498 renal = system: A498 renal
SF-295 CNS = system: SF-295 CNS
OVCAR-5 ovarian = system: OVCAR-5 ovarian
SW-620 colon = system: SW-620 colon
OVCAR-8 ovarian = system: OVCAR-8 ovarian
NCI-H522 lung = system: NCI-H522 lung
TK-10 renal = system: TK-10 renal

| Structure (SMILES) | TGI (MOLT-4 leukemia) [µM] | TGI (NCI-H23 lung) [µM] | TGI (SK-MEL-28 melanoma) [µM] | TGI (A498 renal) [µM] | TGI (SF-295 CNS) [µM] | TGI (OVCAR-5 ovarian) [µM] | TGI (SW-620 colon) [µM] | TGI (OVCAR-8 ovarian) [µM] | TGI (NCI-H522 lung) [µM] | TGI (TK-10 renal) [µM] | GI50 (NCI-H23 lung) [µM] | GI50 (SK-MEL-28 melanoma) [µM] | GI50 (A498 renal) [nM] | GI50 (SF-295 CNS) [µM] | GI50 (OVCAR-5 ovarian) [µM] | GI50 (SW-620 colon) [nM] | GI50 (OVCAR-8 ovarian) [µM] | GI50 (NCI-H522 lung) [µM] | GI50 (TK-10 renal) [µM] | GI50 (MOLT-4 leukemia) [µM] |
| --- | --- | --- | --- | --- | --- | --- | --- | --- | --- | --- | --- | --- | --- | --- | --- | --- | --- | --- | --- | --- |
| CS(=O)(=O)CSCSSCS(C)(=O)=O | > 82.9 | > 95.9 | 66.4 | > 100 | 55.7 | > 93.8 | 34.3 | > 100 | 34 | > 100 | – | – | – | – | – | – | – | – | – | – |
| Cc1cc(Cl)ccc1Nc1nc(C(F)(F)F)ccc1C(=O)N/N=C/c1ccc([N+](=O)[O-])cc1 | > 20 | > 22 | – | 7.1 | 5.71 | > 100 | – | – | > 20.5 | 8.32 | 1.65 | 1.22 | 1410 | 1.55 | 2.99 | 1070 | 1.15 | 1.55 | 1.95 | – |
| C[C@]12CCCC(=O)C1(O)C[C@H](C(=O)O)CC2 (stereo partly specified) | > 100 | > 100 | > 100 | > 100 | > 100 | > 100 | > 100 | > 100 | > 100 | > 100 | – | – | – | – | – | – | – | – | – | – |
| CN(C)CC1CCC/C1=N\O (stereo unspecified) | > 100 | > 100 | > 100 | > 100 | > 100 | > 100 | > 100 | > 100 | > 100 | > 100 | – | – | – | – | – | – | – | – | – | – |
| CCn1c(-c2nonc2N)nc2c(C#CC(C)(C)O)nc(OCCNC)cc21 | > 25 | > 25 | > 25 | 9.43 | > 22.6 | 24.9 | > 25 | > 25 | 9.72 | 20.4 | 8.81 | 8.49 | 1350 | 6.66 | 7.99 | 6680 | 7.81 | 4.98 | 6.35 | 8.68 |
| COC1OC(CO)C(O)C1N (stereo unspecified) | > 100 | > 100 | > 100 | > 100 | > 100 | > 100 | > 100 | > 100 | > 100 | > 100 | – | – | – | – | – | – | – | – | – | – |
| COc1ccccc1/C=C/C(=O)c1ccccc1 | > 36.6 | 36.6 | 30.8 | 31 | 30.9 | 36.5 | 7.08 | 28 | 17.4 | 36.5 | 15.2 | 16.6 | 16300 | 14.8 | 18.9 | 2660 | 11.2 | 4.11 | 21.2 | 2.92 |
| N.N.N.N.O=C([O-])C(Cl)Cl.O=C([O-])C(Cl)Cl.[Co+3].[O-][Cl+3]([O-])([O-])[O-] | > 100 | > 100 | > 100 | > 100 | > 100 | > 100 | > 100 | > 100 | > 100 | > 100 | > 100 | > 100 | > 100000 | > 100 | > 100 | > 100000 | > 100 | > 100 | > 100 | > 100 |
